Assay results published in patent US7847108B2, “Oxathiin carboxamides” (Bayer CropScience AG, priority 2003, dated 2010).
Where two headings read alike, the source gives them in different places.

Assays:
[1] = logP determination by HPLC on reversed-phase column (EEC Directive 79/831 Annex V.A8); assay type: physicochemical; conditions: for chromatographic logP: reversed-phase C18 HPLC column
Description: The given logP values were determined in accordance with EEC Directive 79/831 Annex V.A8 by HPLC (High Performance Liquid Chromatography) on a reversed-phase column (C 18). Temperature: 43° C. […] Calibration was carried out using unbranched alkan-2-ones (having 3 to 16 carbon atoms) with known logP values (determination of the logP values by the retention times using linear interpolation between two successive alkanones).

Botrytis cinerea = assay: Botrytis test (bean)/protective; assay type: in vivo; conditions: 48 h, bean plants, protective, application rate 500 g/ha, evaluation 2 days after inoculation, read-out: % efficacy
Description: Botrytis Test (Bean)/Protective
• Solvents:24.5 parts by weight of acetone 24.5 parts by weight of dimethylacetamide • Emulsifier: 1 part by weight of alkylaryl polyglycol ether
(§1) To produce a suitable preparation of active compound, 1 part by weight of active compound is mixed with the stated amounts of solvents and emulsifier, and the concentrate is diluted with water to the desired concentration.
To test for protective activity, young plants are sprayed with the preparation of active compound at the stated application rate. After the spray coating has dried on, 2 small pieces of agar colonized with Botrytis cinerea are placed onto each leaf. The inoculated plants are placed in a dark chamber at about 20° C. and 100% relative atmospheric humidity.
2 days after the inoculation, the size of the infected areas on the leaves is evaluated. 0% means an efficacy which corresponds to that of the control, whereas an efficacy of 100% means that no infection is observed.

Alternaria solani = assay: Alternaria test (tomato)/protective; assay type: in vivo; conditions: tomato plants, protective, application rate 750 g/ha, evaluation 7 days after inoculation
Description: Alternaria Test (Tomato)/Protective
• Solvent: 49 parts by weight of N,N-dimethylformamide • Emulsifier: 1 part by weight of alkylaryl polyglycol ether
To produce a suitable preparation of active compound, 1 part by weight of active compound is mixed with the stated amounts of solvent and emulsifier, and the concentrate is diluted with water to the desired concentration.
To test for protective activity, young tomato plants are sprayed with the preparation of active compound at the stated application rate. 1 day after the treatment, the plants are inoculated with a spore suspension of Alternaria solani and are then allowed to stand at 100% relative humidity and 20° C. for 24 h. The plants are then allowed to stand at 96% relative atmospheric humidity and a temperature of 20° C.
Evaluation is carried out 7 days after the inoculation. 0% means an efficacy which corresponds to that of the control, whereas an efficacy of 100% means that no infection is observed.

Venturia inaequalis = assay: Venturia test (apple)/protective; assay type: in vivo; conditions: 240 h, apple plants, protective, application rate 100 g/ha, evaluation 10 days after inoculation, read-out: % efficacy
Description: Venturia Test (Apple)/Protective
• Solvents: 24.5 parts by weight of acetone 24.5 parts by weight of dimethylacetamide • Emulsifier: 1 part by weight of alkylaryl polyglycol ether
as §1
To test for protective activity, young plants are sprayed with the preparation of active compound at the stated application rate. After the spray coating has dried on, the plants are inoculated with an aqueous conidia suspension of the apple scab pathogen Venturia inaequalis and then remain in an incubation cabin at about 20° C. and 100% relative atmospheric humidity for 1 day.
The plants are then placed in a greenhouse at about 21° C. and a relative atmospheric humidity of about 90%.
Evaluation is carried out 10 days after the inoculation. 0% means an efficacy which corresponds to that of the control, whereas an efficacy of 100% means that no infection is observed.

Puccinia recondite = assay: Puccinia test (wheat)/protective; assay type: in vivo; conditions: 240 h, wheat plants, protective, application rate 500 g/ha, evaluation 10 days after inoculation, solvent/emulsifier parts 25/0.5, 25/0.6 or 50/1.0, read-out: % efficacy
Description: Puccinia Test (Wheat)/Protective • Solvent: N,N-dimethylacetamide • Emulsifier: alkylaryl polyglycol ether […] To test for protective activity, young plants are sprayed with the preparation of active compound at the stated application rate. After the spray coating has dried on, the plants are sprayed with a conidia suspension of Puccinia recondite. […] The plants are then placed in a greenhouse at a temperature of about 20° C. and a relative atmospheric humidity of 80% to promote the development of rust pustules.

[2] = pH 2.3, C18, 43° C., read-out: logP (pH 2.3)
[3] = Table 1 logP / m.p., C18, 43° C., acidic range (pH 2.3), read-out: logP
[4] = Table 1 logP / m.p., C18, 43° C., acidic range (pH 2.3)
[5] = pH 2.3, C18, 43° C., precursors, read-out: HPLC: logP

Compound | chromatographic logP [1, 3] | logP [1, 4] | pest or weed control at 500 g/ha (Puccinia recondite) [%] | further results
CC(CC(C)(C)C)c1ccccc1NC(=O)C1=C(C(F)(F)F)OCCS1 (centres unmarked) [Example 2, N-[2-(1,3,3-trimethylbutyl)phenyl]-6-trifluoromethyl-2,3-dihydro-1,4-oxathiin-5-carboxamide] | – | – | 100 | chromatographic logP [1, 2]: 4.18; pest or weed control at 500 g/ha (Botrytis cinerea): 100%; % efficacy (Alternaria solani): 100%; pest or weed control at 100 g/ha (Venturia inaequalis): 98%
CC1CC(C)(C)c2cccc(NC(=O)C3=C(C(F)(F)F)OCCS3)c21 (centres unmarked) [Example 12] | – | – | – | pest or weed control at 500 g/ha (Botrytis cinerea): 97%; pest or weed control at 100 g/ha (Venturia inaequalis): 100%
O=C(Nc1ccc(F)cc1-c1ccc(Cl)c(Cl)c1)C1=C(C(F)(F)F)OCCS1 [Example 17] | 3.95 | – | 86 | pest or weed control at 500 g/ha (Botrytis cinerea): 96%; pest or weed control at 100 g/ha (Venturia inaequalis): 100%
CC(C)CC(C)c1ccccc1NC(=O)C1=C(C(F)(F)F)OCCS1 (centres unmarked) [Example 18] | 3.92 | – | 100 | pest or weed control at 500 g/ha (Botrytis cinerea): 100%; pest or weed control at 100 g/ha (Venturia inaequalis): 100%
O=C(Nc1ccccc1-c1ccc(Cl)c(Cl)c1)C1=C(C(F)(F)F)OCCS1 [Example 19] | 3.91 | – | 100 | pest or weed control at 500 g/ha (Botrytis cinerea): 100%; % efficacy (Alternaria solani): 100%; pest or weed control at 100 g/ha (Venturia inaequalis): 100%
O=C(Nc1ccccc1-c1ccc(C(F)(F)F)cc1)C1=C(C(F)(F)F)OCCS1 [Example 20] | 3.73 | – | – | pest or weed control at 500 g/ha (Botrytis cinerea): 100%; pest or weed control at 100 g/ha (Venturia inaequalis): 88%
CC(C)O/N=C/c1ccc(-c2ccccc2NC(=O)C2=C(C(F)(F)F)OCCS2)cc1 [Example 21] | 4.22 | – | – | pest or weed control at 500 g/ha (Botrytis cinerea): 100%; % efficacy (Alternaria solani): 100%; pest or weed control at 100 g/ha (Venturia inaequalis): 100%
CCCO/N=C/c1ccc(-c2ccccc2NC(=O)C2=C(C(F)(F)F)OCCS2)cc1 [Example 22] | 4.25 | – | – | pest or weed control at 500 g/ha (Botrytis cinerea): 100%; pest or weed control at 100 g/ha (Venturia inaequalis): 100%
O=C(Nc1ccccc1-c1ccc(Cl)c(F)c1)C1=C(C(F)(F)F)OCCS1 [Example 23] | 3.62 | – | 89 | –
O=C(Nc1ccccc1-c1ccc(F)c(Cl)c1)C1=C(C(F)(F)F)OCCS1 [Example 24] | 3.6 | – | 100 | –
Cc1cc(Cl)ccc1-c1ccccc1NC(=O)C1=C(C(F)(F)F)OCCS1 [Example 26] | 4 | – | – | % efficacy (Alternaria solani): 100%
O=C(Nc1ccccc1-c1ccc(Br)cc1)C1=C(C(F)(F)F)OCCS1 [Example 27] | 3.7 | – | 88 | –
O=C(Nc1ccccc1-c1ccc(C(F)(F)F)c(F)c1)C1=C(C(F)(F)F)OCCS1 [Example 29] | 3.75 | – | 94 | –
Cc1cc(-c2ccccc2NC(=O)C2=C(C(F)(F)F)OCCS2)ccc1F [Example 35] | 3.65 | – | 88 | –
CC(CC1CCCC1)c1ccccc1NC(=O)C1=C(C(F)(F)F)OCCS1 (centres unmarked) [Example 37] | 4.38 | – | 93 | –
Cc1ccc(-c2ccccc2NC(=O)C2=C(C(F)(F)F)OCCS2)cc1Cl [Example 38] | 3.89 | – | 88 | –
CC/C(=N\OC)c1ccc(-c2ccccc2NC(=O)C2=C(C(F)(F)F)OCCS2)cc1 [Example 56] | 4.08 | – | 88 | –
O=C(Nc1ccccc1-c1ccc(Br)c(F)c1)C1=C(C(F)(F)F)OCCS1 [Example 57] | 3.69 | – | 88 | –
O=C(Nc1ccccc1-c1ccc(Cl)cc1Cl)C1=C(C(F)(F)F)OCCS1 [Example 79] | 3.82 | – | 86 | –
CC(C)CC(C)c1ccccc1NC(=O)C1=C(C(F)F)OCCS1 (centres unmarked) [Example 82] | 4.03 | – | 100 | –
Cc1cc(Cl)ccc1-c1ccccc1NC(=O)C1=C(C(F)(F)F)OCCS1(=O)=O [Example 92] | – | 3.66 | – | –
O=C(Nc1ccccc1-c1ccc(Cl)c(Cl)c1)C1=C(C(F)(F)F)OCCS1(=O)=O [Example 93] | – | 3.57 | – | –
CCC(C)C(C)c1ccccc1NC(=O)C1=C(C(F)(F)F)OCCS1 (centres unmarked) [Example 94] | – | 3.88 | – | –
CC1COC(C(F)(F)F)=C(C(=O)O)S1 (centres unmarked) [Example (II-2)] | – | – | – | chromatographic logP [1, 5]: 1.69
CC1CSC(C(=O)O)=C(C(F)(F)F)O1 (centres unmarked) [Example (II-3)] | – | – | – | chromatographic logP [1, 5]: 1.72
CC(C)=CC(C)c1ccccc1N (centres unmarked) [Example (III-2)] | – | – | – | chromatographic logP [1, 5]: 1.19
CCC(Cl)CC(C)c1ccccc1N (centres unmarked) [Example (III-3), 2-(3-Chloro-1-methylpentyl)phenylamine] | – | – | – | chromatographic logP [1, 5]: 2.3
CC(CC1CC1(Cl)Cl)c1ccccc1NC(=O)C(C)(C)C (centres unmarked) [III-4a, N-{2-[2-(2,2-dichlorocyclopropyl)-1-methylethyl]-phenyl}-2,2-dimethylpropionamide] | – | – | – | chromatographic logP [1, 2]: 3.77

Further lines, with some results ahead:

chromatographic logP [1, 3] | logP [1, 4] | Compound | pest or weed control at 500 g/ha (Puccinia recondite) [%] | further results
– | 3.28 | O=C(Nc1ccccc1-c1ccc(Cl)c(F)c1)C1=C(C(F)(F)F)OCCS1(=O)=O [Example 95] | – | –
– | 3.72 | CC(CC1CC1)c1ccccc1NC(=O)C1=C(C(F)(F)F)OCCS1 (centres unmarked) [Example 96] | – | –
– | 4.42 | CC(C)(C)C#Cc1ccccc1NC(=O)C1=C(C(F)(F)F)OCCS1 [Example 97] | – | –
– | 4.06 | Cc1cc(-c2ccccc2NC(=O)C2=C(C(F)(F)F)OCCS2)ccc1Br [Example 98] | – | –
– | 4.56 | CC(=O)N(C(=O)C1=C(C(F)(F)F)OCCS1)c1ccccc1C(C)CC(C)C (centres unmarked) [Example 99] | – | –
– | 2.53 | CON=C(c1ccc(-c2ccccc2NC(=O)C2=C(C(F)(F)F)OCCS2)cc1)C(F)(F)F [Example 100] | – | –
– | 3.66 | CC1(c2ccccc2NC(=O)C2=C(C(F)(F)F)OCCS2)CC1(Cl)Cl (centres unmarked) [Example 101] | – | –
– | 3.72 | CC(C)CCc1ccccc1NC(=O)C1=C(C(F)(F)F)OCCS1 [Example 102] | – | –
– | 3.98 | CC(C)(C)CCc1ccccc1NC(=O)C1=C(C(F)(F)F)OCCS1 [Example 103] | – | –
